How the values were obtained:
MC1R = target: T1, MC1R (Homo sapiens, UniProt Q01726); assay: Commercially available MC1R membrane binding assay; conditions: greater than highest concentration tested
T1 construct: purchased
Method: (§1) The selectivity over other human MCR subtypes was evaluated using commercially available MC1R, MC3R, MC4R, and MCSR membrane binding assays. The half maximal inhibitory concentration in the binding assays (IC50) were determined to be greater than the highest concentration tested, or >10,000 nM, >1000 nM, >10,000 nM and >1000 nM for MC1R, MC3R, MC4R and MCSR, respectively. Compound 1 is >2900-fold selective for MC2R versus the other human MCRs.

MCSR = target: T2, MCSR (Homo sapiens, UniProt P33032); assay: Commercially available MCSR membrane binding assay; conditions: greater than highest concentration tested
T2 construct: purchased
T2 sequence (P33032 whole entry): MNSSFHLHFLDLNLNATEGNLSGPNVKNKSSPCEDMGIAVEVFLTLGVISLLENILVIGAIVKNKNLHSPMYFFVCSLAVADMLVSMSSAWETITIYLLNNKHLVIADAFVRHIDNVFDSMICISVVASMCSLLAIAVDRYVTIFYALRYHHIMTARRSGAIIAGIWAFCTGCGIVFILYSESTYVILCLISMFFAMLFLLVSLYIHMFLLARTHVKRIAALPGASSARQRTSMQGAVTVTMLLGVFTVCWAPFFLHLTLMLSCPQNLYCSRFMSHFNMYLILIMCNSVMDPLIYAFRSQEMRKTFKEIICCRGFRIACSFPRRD
Method: as §1

[1] = system: calcium channel L-type (phenylalkylamine); assay: SafetyScreen panel: calcium channel L-type; assay type: binding; conditions: 10 μM
Method: Compound 1 was tested at Eurofins Panlabs Discovery Services Taiwan, Ltd. for evaluation in their SafetyScreen™ panel of assays. This included selectivity assays at 87 targets including G-protein coupled receptors, nuclear receptors, other cell surface receptors, ion channels, enzymes, and transporters.

5-HT1B receptor = 5-HT1B receptor (Homo sapiens, UniProt P28222); assay: 5-HT1B functional dose response, agonist and antagonist modes; assay type: biochemical
Chain of 5-HT1B receptor (P28222 whole entry): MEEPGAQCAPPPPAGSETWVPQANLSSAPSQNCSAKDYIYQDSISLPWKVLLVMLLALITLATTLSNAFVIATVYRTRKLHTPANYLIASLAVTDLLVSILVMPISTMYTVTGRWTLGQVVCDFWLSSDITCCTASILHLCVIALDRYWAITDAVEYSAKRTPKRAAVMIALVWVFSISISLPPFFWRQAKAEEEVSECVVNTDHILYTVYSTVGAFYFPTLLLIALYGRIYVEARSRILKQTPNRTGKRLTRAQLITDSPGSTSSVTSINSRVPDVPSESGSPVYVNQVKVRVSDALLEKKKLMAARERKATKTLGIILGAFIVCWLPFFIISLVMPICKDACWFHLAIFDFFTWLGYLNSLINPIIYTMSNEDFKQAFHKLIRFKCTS
From the text: The selectivity of Compound 1 for hMC2R over 5-HT1B is >2200-fold.

[2] = system: ACTH-stimulated corticosterone; assay: Single oral dose with repeated ACTH(1-24) challenges in rats; assay type: in vivo, rat; conditions: for suppression of ACTH-stimulated corticosterone: vs vehicle
Method: The ability of a single dose of Compound 1 to suppress corticosterone after repeated ACTH(1-24) (1 μg/kg) challenges was evaluated to determine the reproducibility of the ACTH-stimulated corticosterone response and the amount of time required to restore the corticosterone response to vehicle levels.
Compound 1 suppressed ACTH-stimulated corticosterone at 1 hour (44% and 88% with 3 and 30 mg/kg, respectively) and 4 hours (36% and 84% with 3 and 30 mg/kg, respectively) post-oral administration compared to vehicle treatment.

[3] = system: plasma corticosterone in mice with ACTH-secreting AtT-20 cell tumors; assay: ACTH-secreting AtT-20 mouse pituitary cell tumor model, 14 days of daily oral dosing; assay type: in vivo; conditions: for suppression of plasma corticosterone: 2 hours after last dose, vs vehicle
Method: The ability of 14 days of daily oral administration of Compound 1 to suppress corticosterone in a mouse model of ACTH excess was evaluated.
Briefly, female Balb/c nude mice were subcutaneously implanted with AtT-20 corticotroph tumor cells in the rear flank (3 million cells/injection/animal) on Day 0. The no-tumor (NT) control group was injected with media only. When tumors became palpable on Day 21, mice were assigned to groups randomized for body weight, and 0, 15, 30 or 100 mg/kg/day of Compound 1. Compound 1 was orally administered for 14 days (Day 21 to Day 34).

[4] = Phase 1 SAD study, pharmacokinetics in healthy volunteers; assay type: in vivo, human
From the text: (§2) This Phase 1, first-in-human, double-blind, randomized, placebo-controlled study will evaluate the safety of Compound 1 in healthy volunteers as well as the relationship between exposure and pharmacodynamic (PD) parameters, including ACTH-stimulated and endogenous cortisol secretion measured in blood, saliva, and urine. Results will be used to inform endpoints and other parameters in future later studies in patients with Cushing's disease (CD) or other diseases of excess adrenocorticotropic hormone (ACTH), including Congenital Adrenal Hyperplasia (CAH) and Ectopic ACTH Syndrome (EAS).
(§3) SAD/Part 1: ascending single dose, randomized, placebo-controlled, double-blind; 5 planned and up to 8 total cohorts, n=64. In each cohort, 6 subjects will receive Compound 1, 2 subjects will receive the placebo. Doses will escalate from 10 mg in cohort 1 to no more than 250 mg.
Data shown are mean±SEM. All doses n=6. Cohort 4 (n=6, 80 mg) was evaluated in the high dose ACTH-stimulation test, while cohort 5 (n=6, 80 mg) was evaluated in the low dose ACTH-stimulation test.

[5] = system: basal and ACTH-stimulated cortisol; assay: Phase 1 SAD study, basal cortisol and ACTH-stimulation test; assay type: in vivo, human; conditions: for % suppression in cortisol AUC: high dose ACTH (250 mcg) challenge
From the text: as §2, §3
ACTH-stimulation tests are conducted while fasting. For PD analyses, blood samples are collected for measurement of serum cortisol, A4, 17-OHP, aldosterone, and DHEA. A summary of the procedure is as follows: In the “high dose” test, each subject is administered an IV 250 μg dose (for subjects >37 lbs) of cosyntropin (ACTH(1-24)) at the start of each test; in the “low dose” test, 1 mcg is administered instead. At 2 hours after study drug dosing/Time 0 (±5 minutes), collect blood sample. Within 5 minutes, administer cosyntropin IV infusion over 2 minutes. Collect blood sample at Time 30 minutes (5 minutes). Collect blood sample at Time 60 minutes (5 minutes).
Starting on Day −1 until EOS (or ET), fasting pre-dose blood samples are collected <15 minutes prior to dosing (˜0800 hr) for measurement of serum cortisol, A4, 17-OHP, aldosterone, ACTH(1 39), renin, and DHEAS. On Days in which ACTH-stimulation tests are conducted, these tests are done approximately 2 hours post-study drug dosing. Prior to cosyntropin administration, at 2 hours (15 minutes) post-dose, blood samples are collected for measurement of cortisol, A4, 17-OHP, aldosterone, and DHEA. Cosyntropin is then administered to define time 0 of the ACTH-stimulation test. At 2.5 hours (15 minutes) post-dose/30 minutes post-cosyntropin, blood samples are collected for measurement of cortisol. At 3 hours (15 minutes) post-dose/60 minutes post-cosyntropin, blood samples are collected for measurement of cortisol, A4, 17-OHP, aldosterone, and DHEA.
Compound 1 was also evaluated in the context of an ACTH-Stimulation Test, with oral Compound 1 or placebo being administered prior to the intravenous (IV) administration of cosyntropin (ACTH(1-24)). In the absence of pharmacologic intervention, IV administration of ACTH leads to the secretion of cortisol; whereas the pharmacologic intervention can suppress secretion of […] cortisol levels.

[6] = daily oral dosing over the course of the experiment

T1 sequence (Q01726 whole entry): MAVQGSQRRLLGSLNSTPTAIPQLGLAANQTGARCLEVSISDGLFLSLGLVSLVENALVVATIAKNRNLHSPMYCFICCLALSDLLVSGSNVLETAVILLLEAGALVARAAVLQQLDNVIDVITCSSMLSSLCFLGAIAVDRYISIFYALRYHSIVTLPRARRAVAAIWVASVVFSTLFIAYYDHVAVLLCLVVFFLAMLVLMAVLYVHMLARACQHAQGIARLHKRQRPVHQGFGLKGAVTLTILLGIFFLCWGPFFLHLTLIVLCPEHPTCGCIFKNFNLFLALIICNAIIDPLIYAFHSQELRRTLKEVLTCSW

**Q.** Which IC50 (MC1R) does the source give for CCOc1ccccc1-c1ccc(N2CCN(C(=O)C3(C(F)(F)F)CCC3)C[C@H]2CC)c(C(=O)N[C@@H]2CN3CCC2CC3)n1 [Compound 1, 6-(2-ethoxyphenyl)-3-((R)-2-ethyl-4-(1-(trifluoromethyl)cyclobutane-1-carbonyl)piperazin-1-yl)-N—((S)-quinuclidin-3-yl)picolinamide] here?
**A.** > 10000 nM

**Q.** What about the IC50 (MCSR) of the same molecule?
**A.** > 1000 nM

**Q.** What about the inhibition/activity [1] of the same molecule?
**A.** > 70%

**Q.** And the “selectivity for hMC2R over 5-HT1B” value (5-HT1B receptor)?
**A.** > 2200 fold

**Q.** And the agonistic activity (5-HT1B receptor; agonist mode, no signal up to 3000 nM)?
**A.** no agonistic activity

**Q.** And the IC50 (5-HT1B receptor; antagonist mode, read-out: antagonistic activity IC50)?
**A.** ~750 nM

**Q.** What about the ACTH-stimulated corticosterone ([2]; 24 and 48 hours after single oral 3 or 30 mg/kg) of the same molecule?
**A.** returned to normal, vehicle levels

**Q.** What about the “suppression of ACTH-stimulated corticosterone” value ([2]; 1 hour post-oral administration, 3 mg/kg) of the same molecule?
**A.** 44%

**Q.** And the “suppression of ACTH-stimulated corticosterone” value ([2]; 1 hour post-oral administration, 30 mg/kg)?
**A.** 88%

**Q.** What about the “suppression of ACTH-stimulated corticosterone” value ([2]; 4 hours post-oral administration, 3 mg/kg) of the same molecule?
**A.** 36%

**Q.** What about the “suppression of ACTH-stimulated corticosterone” value ([2]; 4 hours post-oral administration, 30 mg/kg) of the same molecule?
**A.** 84%

**Q.** What about the “suppression of plasma corticosterone” value ([3]; 15 mg/kg/day) of the same molecule?
**A.** 73%

**Q.** And the “suppression of plasma corticosterone” value ([3]; 30 mg/kg/day)?
**A.** 88%

**Q.** What about the “increase in ACTH levels” value ([3]; 100 mg/kg/day vs vehicle) of the same molecule?
**A.** 2.4 fold

**Q.** What about the “suppression of plasma corticosterone” value ([3]; 100 mg/kg/day) of the same molecule?
**A.** 92%

**Q.** What about the body weight [3, 6] of the same molecule?
**A.** no significant effect

**Q.** What about the tumor volume [3, 6] of the same molecule?
**A.** no significant effect

**Q.** What about the Tmax ([4]; human, in vivo, single oral dose, at efficacious doses) of the same molecule?
**A.** ~1 h

**Q.** What about the half-life ([4]; human, in vivo, single oral dose, healthy volunteers) of the same molecule?
**A.** ~24 h

**Q.** And the “oral bioavailability / exposure” value ([4]; single ascending oral doses)?
**A.** oral bioavailability with dose-proportional exposure

**Q.** What about the “% suppression in cortisol AUC” value ([5]; 10 mg) of the same molecule?
**A.** about 9%

**Q.** And the “% suppression in cortisol AUC” value ([5]; 20 mg)?
**A.** about 22%

**Q.** And the “% suppression in cortisol AUC” value ([5]; 40 mg)?
**A.** about 36%

**Q.** What about the “acute reduction of basal cortisol” value ([5]; 80 mg, 2 hours after administration) of the same molecule?
**A.** 56%

**Q.** What about the “% suppression in cortisol AUC” value ([5]; 80 mg) of the same molecule?
**A.** about 41%

**Q.** What about the “reduction in cortisol levels” value ([5]; 80 mg, low dose ACTH (1 mcg) stimulation challenge) of the same molecule?
**A.** 48%

Reference: patent publication US12280046B2, “Melanocortin subtype-2 receptor (MC2R) antagonist for the treatment of disease” (Crinetics Pharmaceuticals, Inc., priority 2021, dated 2025)
